Structures are written as SMILES.

This assay has as its system OCI-LY10 cells. Briefly: Cell proliferation assay (MTS) in OCI-LY10 cells. In kind it is cell-based. To be noted: Homo sapiens; inhibition of OCI-LY10 cells proliferation, 72 h incubation, MTS, absorbance at 490 nm; read-out: OCI-LY10 IC50. An excerpt:
MTS testing kit was purchased from Promega (Madison, Wis., USA). The RPMI-1640, Fetal bovine serum and Penicillin-Streptomycin were purchased from BI (Biological Industries, Beit Haemek, Israel). Dimethyl sulfoxide (DMSO) was purchased from Sigma (St. Louis., Mo., USA). […] To investigate whether a compound is able to inhibit the activity of BTK in cells, a mechanism-based assay using OCI-LY10 cells was developed. In this assay, inhibition of BTK was detected by the inhibition of OCI-LY10 cells proliferation. Cells were plated into 96-well plates at a density of 10000 cells/well. Plates were incubated at 37° C., with 5% CO2 for 4 h. […] Plates were incubated at 37° C., with 5% CO2 for 72 h. 20 μl MTS was added into each well and the plates were incubated at 37° C., with 5% CO2 for exactly 2 h. The absorbance was measured by a microplate reader at 490 nm. IC50 was calculated using GraphPad Prism 5.0 software. Select compounds prepared as described above were assayed according to the biological procedures described herein.
Consider `COc1ccc(F)cc1C(=O)NCc1ccc(-c2nn(C3(C(F)(F)F)CC3)c3c(=O)[nH]nc(N)c23)cc1` [Example 87, N-(4-(4-amino-7-oxo-1-(1-(trifluoromethyl)cyclopropyl)-6,7-dihydro-1H-pyrazolo [3,4-d]pyridazin-3-yl)benzyl)-5-fluoro-2-methoxybenzamide], for which the concentration for half-maximal inhibition (IC50) was found to be 4 nM. In the case of `COc1ccc(F)cc1C(=O)NCc1ccc(-c2nn([C@@H](CF)C3CC3)c3c(=O)[nH]nc(N)c23)cc1` [Example 88, (R)-N-(4-(4-amino-1-(1-cyclopropyl-2-fluoroethyl)-7-oxo-6,7-dihydro-1H-pyrazolo[3,4-d]pyridazin-3-yl)benzyl)-5-fluoro-2-methoxybenzamide] it was 1 nM; in that of `COc1ccc(F)cc1C(=O)NCc1ccc(-c2nn([C@@H](C(F)F)C3CC3)c3c(=O)[nH]nc(N)c23)cc1` [Example 89, (R)-N-(4-(4-amino-1-(1-cyclopropyl-2,2-difluoroethyl)-7-oxo-6,7-dihydro-1H-pyrazolo[3,4-d]pyridazin-3-yl)benzyl)-5-fluoro-2-methoxybenzamide], 1 nM; in that of `COc1ccc(F)cc1C(=O)NCc1ccc(-n2nc(C3CCCC3(F)F)c3c(=O)[nH]nc(N)c32)cc1` (centres unmarked) [Example 90, N-(4-(7-amino-3-(2,2-difluorocyclopentyl)-4-oxo-4,5-dihydro-1H-pyrazolo [3,4-d]pyridazin-1-yl)benzyl)-5-fluoro-2-methoxybenzamide], 15 nM. As to `CCC(C)c1nn(-c2ccc(CNC(=O)c3cc(F)ccc3OC)cc2)c2c(N)n[nH]c(=O)c12` (centres unmarked) [Example 92a, N-(4-(7-amino-3-(sec-butyl)-4-oxo-4,5-dihydro-1H-pyrazolo[3,4-d]pyridazin-1-yl)benzyl)-5-fluoro-2-methoxybenzamide], the IC50 was found to be 10 nM. Take `CC[C@@H](C)c1nn(-c2ccc(CNC(=O)c3cc(F)ccc3OC)cc2)c2c(N)n[nH]c(=O)c12` [Example 92b, (R)-N-(4-(7-amino-3-(sec-butyl)-4-oxo-4,5-dihydro-1H-pyrazolo[3,4-d]pyridazin-1-yl)benzyl)-5-fluoro-2-methoxybenzamide]: the IC50 was determined as 22 nM. For the molecule `COc1ccc(F)cc1C(=O)NCc1ccc(-n2nc(CC3CC3)c3c(=O)[nH]nc(N)c32)cc1` [Example 93, N-(4-(7-amino-3-(cyclopropylmethyl)-4-oxo-4,5-dihydro-1H-pyrazolo[3,4-d]pyridazin-1-yl)benzyl)-5-fluoro-2-methoxybenzamide], the IC50 came out at 24 nM.

As to `COc1ccc(F)cc1C(=O)NCc1ccc(-n2nc(C(C)(C)C)c3c(=O)[nH]nc(N)c32)cc1` [Example 94, N-(4-(7-amino-3-(tert-butyl)-4-oxo-4,5-dihydro-1H-pyrazolo[3,4-d]pyridazin-1-yl)benzyl)-5-fluoro-2-methoxybenzamide], the half-inhibitory concentration (IC50) was found to be 1 nM. Next, `COc1ccc(F)cc1C(=O)NCc1ccc(-n2nc(C(C)C3CC3)c3c(=O)[nH]nc(N)c32)cc1` (centres unmarked) [Example 96, N-(4-(7-amino-3-(1-cyclopropylethyl)-4-oxo-4,5-dihydro-1H-pyrazolo[3,4-d]pyridazin-1-yl)benzyl)-5-fluoro-2-methoxybenzamide]: 1 nM; `COc1ccc(F)cc1C(=O)NCc1ccc(-n2nc(C3CC(F)(F)C3)c3c(=O)[nH]nc(N)c32)cc1` [Example 97, N-(4-(7-amino-3-(3,3-difluorocyclobutyl)-4-oxo-4,5-dihydro-1H-pyrazolo[3,4-d]pyridazin-1-yl)benzyl)-5-fluoro-2-methoxybenzamide]: 23 nM; `COc1ccc(F)cc1C(=O)NCc1ccc(-n2nc(C3(F)CC3)c3c(=O)[nH]nc(N)c32)cc1` [Example 98, N-(4-(7-amino-3-(1-fluorocyclopropyl)-4-oxo-4,5-dihydro-1H-pyrazolo[3,4-d]pyridazin-1-yl)benzyl)-5-fluoro-2-methoxybenzamide]: 92 nM. For `COc1ccc(F)cc1C(=O)NCc1ccc(-n2nc(C3CC3(F)F)c3c(=O)[nH]nc(N)c32)cc1` (centres unmarked) [Example 99, N-(4-(7-amino-3-(2,2-difluorocyclopropyl)-4-oxo-4,5-dihydro-1H-pyrazolo[3,4-d]pyridazin-1-yl)benzyl)-5-fluoro-2-methoxybenzamide], the IC50 is 65 nM. In the case of `COc1ccc(F)cc1C(=O)NCc1ccc(-n2c(=O)n(C3CCC3)c3c(=O)[nH]nc(N)c32)cc1` [Example 102, N-(4-(7-amino-3-cyclobutyl-2,4-dioxo-2,3,4,5-tetrahydro-1H-imidazo[4,5-d]pyridazin-1-yl)benzyl)-5-fluoro-2-methoxybenzamide] it was 76 nM; in that of `COc1ccc(F)cc1C(=O)NCc1ccc(-c2cn([C@@H]3CCN(C(=O)OC(C)C)C3)c3c(=O)[nH]nc(N)c23)cc1` [Example 105, isopropyl (R)-3-(4-amino-3-(4-((5-fluoro-2-methoxybenzamido)methyl)phenyl)-7-oxo-6,7-dihydro-1H-pyrrolo[2,3-d]pyridazin-1-yl)pyrrolidine-1-carboxylate], 4 nM.

Turning to `COc1ccc(F)cc1C(=O)NCc1ccc(-c2cn([C@@H]3CCN(C(=O)OC4CC4)C3)c3c(=O)[nH]nc(N)c23)cc1` [Example 106, cyclopropyl (R)-3-(4-amino-3-(4-((5-fluoro-2-methoxybenzamido)methyl)phenyl)-7-oxo-6,7-dihydro-1H-pyrrolo[2,3-d]pyridazin-1-yl)pyrrolidine-1-carboxylate], the 50% inhibitory concentration (IC50) amounted to 11 nM.

On to `COc1ccc(F)cc1C(=O)NCc1ccc(-c2cn([C@@H]3CCN(C(=O)N4CCC4)C3)c3c(=O)[nH]nc(N)c23)cc1` [Example 107, (R)-N-(4-(4-amino-1-(1-(azetidine-1-carbonyl)pyrrolidin-3-yl)-7-oxo-6,7-dihydro-1H-pyrrolo[2,3-d]pyridazin-3-yl)benzyl)-5-fluoro-2-methoxybenzamide], for which the IC50 amounted to 11 nM. As to `C=CC(=O)N1CC[C@@H](n2cc(-c3ccc(CNC(=O)c4cc(F)ccc4OC)cc3)c3c(N)n[nH]c(=O)c32)C1` [Example 109, (R)-N-(4-(1-(1-acryloylpyrrolidin-3-yl)-4-amino-7-oxo-6,7-dihydro-1H-pyrrolo [2,3-d]pyridazin-3-yl)benzyl)-5-fluoro-2-methoxybenzamide], the IC50 was 1 nM.

`CCS(=O)(=O)N1CC[C@@H](n2cc(-c3ccc(CNC(=O)c4cc(F)ccc4OC)cc3)c3c(N)n[nH]c(=O)c32)C1` [Example 110, (R)-N-(4-(4-amino-1-(1-(ethylsulfonyl)pyrrolidin-3-yl)-7-oxo-6,7-dihydro-1H-pyrrolo[2,3-d]pyridazin-3-yl)benzyl)-5-fluoro-2-methoxybenzamide]: the half-maximal inhibitory concentration (IC50) was 23 nM.

As to `COc1ccc(F)cc1C(=O)NCc1ccc(-c2cn([C@@H]3CCN(S(=O)(=O)C(C)C)C3)c3c(=O)[nH]nc(N)c23)cc1` [Example 111, (R)-N-(4-(4-amino-1-(1-(isopropylsulfonyl)pyrrolidin-3-yl)-7-oxo-6,7-dihydro-1H-pyrrolo[2,3-d]pyridazin-3-yl)benzyl)-5-fluoro-2-methoxybenzamide], the concentration for half-maximal inhibition (IC50) worked out at 14 nM. As for `COc1ccc(F)cc1C(=O)NCc1ccc(-c2cn([C@@H]3CCN(S(=O)(=O)C4CC4)C3)c3c(=O)[nH]nc(N)c23)cc1` [Example 112, (R)-N-(4-(4-amino-1-(1-(cyclopropylsulfonyl)pyrrolidin-3-yl)-7-oxo-6,7-dihydro-1H-pyrrolo[2,3-d]pyridazin-3-yl)benzyl)-5-fluoro-2-methoxybenzamide], the IC50 amounted to 2 nM.

The values are drawn from patent US20230145305A1, “COMPOUNDS USEFUL AS KINASE INHIBITORS” (Fochon Biosciences, Ltd., priority 2020, published 2023).
